The record followed here is patent publication US5994396A, “Furansulfonic acid derivatives and pharmaceutical compositions containing the same” (priority 1998, dated 1999).

In test [1] the test system is interleukin-6 (IL-6) release, THP-1 cells. The test is described as follows: Reduction of LPS and β-amyloid-induced increased release of interleukin-6 in THP-1 cells (ELISA). The note with it: Homo sapiens, 100 μM test compound with LPS and Aβ(25-35), 48 hours, read-out: reduction of β-amyloid-induced increased release of interleukin-6 compared to the controls. In kind it is cell-based. How it is done: (§1) THP-1 cells, a human monocyte cell line from American Type Culture Collection, were grown in RPMI-1640 medium plus 10% fetal bovine serum (FBS, not heat-inactivated) in T-flasks. The medium was changed every two days by spinning down (800 rpm, 5 minutes) the cells, replating cells and adding fresh medium. Alternatively, the cultures were maintained by the addition of fresh medium. The cultures were maintained at a cell concentration ranging from between 1×10^5 and 1×10^6 cells/mL. Because sera may contain unknown factors which can affect macrophage/monocyte IL-1 production, the FBS was reduced to 5% for 24 hours. The FBS was further reduced to 2% over two days prior to starting each experiment. The cells were collected by centrifugation and resuspended into 2% FBS. Cell numbers were calculated and cells were plated on 24-well plates (3×10^5 cells/0.6 mL/well). Cells were then treated with LPS (0.5 μg/ml or 0-10 μg/ml for LPS dose-responseexperiments) alone or in combination with Aβ peptides (5 μM or 0.05-5 μM for dose-response experiments). When determining the effect of the test compounds on IL-1β, IL-6 and TNFα release, 100 μM of the test compound was added with the LPS and Aβ(25-35) and this mixture was incubated for 48 hours prior to performing ELISA.
(§2) IL-1β, IL-6 and TNFα secretions into medium by LPS-stimulated THP-1 cells, in the presence or absence of amyloid peptides and a test compound, were assayed with a commercially available ELISA kit (R & D Systems). Briefly, a microtiter plate coated with a murine monoclonal antibody to human IL-1β, IL-6, or TNFα was supplied by the manufacturer. Standards and samples were pipetted into the wells and any IL-1β, IL-6 or TNFα present was bound by the immobilized antibody. Unbound proteins were washed away and a horseradish peroxidase-linked polyclonal antibody specific for IL-1β, IL-6 or TNFα was added to the wells to "sandwich" the IL-1β, IL-6 and TNFα bound in the initial step. After washing to remove any unbound antibody-enzyme reagent, a substrate solution (1:1 hydrogen peroxide:tetramethylbenzidine, v/v) was added to the wells and color developed in proportion to the amount of IL-1β, IL-6 or TNFα bound in the initial step. Color development was stopped with 2 N sulfuric acid and the optical density of the standard and the test samples was measured at 450 nm. The amounts of IL-1β, IL-6 or TNFα present in the samples were calculated based upon a standard curve. Assays were run in quadruplicate wells.

Test [2] concerns interleukin-1β (IL-1β) release, THP-1 cells. The test can be described thus: Reduction of LPS and β-amyloid-induced increased release of interleukin-1β in THP-1 cells (ELISA). It counts as cell-based. The note with it: Homo sapiens, 100 μM test compound with LPS and Aβ(25-35), 48 hours, read-out: reduction of β-amyloid-induced increased release of interleukin-1β compared to the controls. The method, then:
as §1, §2

The test system of test [3] is rat embryonic hippocampal primary neuronal/astrocytic cultures. The test can be described thus: Protection against Aβ(25-35)-induced neuronal cell loss. In kind it is cell-based, Sprague Dawley rat. The note with it: Neuron, 100 μM test compound, 30 μM Aβ(25-35), 96 hours treatment, morphologically viable neurons counted, read-out: reduction of Aβ(25-35)-induced neuronal cell loss compared to the controls. The method, then:
Sprague Dawley rat hippocampus of 18-day-gestation embryos was excised and then dissociated by trituration to prepare primary neuronal/astrocytic cultures. Cells (3×10^5) were plated on 35 mm poly-D-lysine-coated plates containing Eagle's minimum essential medium supplemented with 10% fetal bovine serum. After 3-5 hours, the original medium was removed and replaced with 1 mL of fresh medium. Cultures were maintained at 37° C. in a 5% CO2 /95% air, humidified incubator.
To the cells (7 DIV) was added 30 μM of Aβ(25-35) dissolved in dH2 O (stored at -20° C.) and 100 μM of the test compound in 1% methylcellulose. Controls were also conducted without the test compound. The percentage of morphologically viable neurons was determined counting the number of viable neurons after 96 hours treatment compared to the number of neurons before treatment in the same premarked culture regions (three regions/culture). The number of wells was n=6 per treatment condition.

Test [4] concerns tumor necrosis factor-α (TNFα) release, THP-1 cells. The test can be described thus: Reduction of LPS and β-amyloid-induced increased release of tumor necrosis factor-α in THP-1 cells (ELISA). It counts as cell-based. The note with it: Homo sapiens, 100 μM test compound with LPS and Aβ(25-35), 48 hours, read-out: reduction of β-amyloid-induced increased release of tumor necrosis factor-α compared to the controls. The method, then: as §1, §2

For the next test, the target named is T1, synthetic Aβ(1-40) (Homo sapiens, UniProt P05067).
T1 construct: particularly the aggregated fibrils of synthetic Aβ(1-40)
T1 sequence (P05067 672-711): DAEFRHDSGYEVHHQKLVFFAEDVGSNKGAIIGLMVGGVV
The test is described as follows: Inhibition of Aβ(1-40) beta-pleated sheet formation (thioflavin T fluorescence). In kind it is biochemical. The note with it: compound 10 μM; ThT 3 μM in PBS pH 6.0; Aβ(1-40) 3 μg; fluorescence increase over 12-24 hours; read-out: percent inhibition of Aβ(1-40) beta-pleated sheet formation compared to the controls. How it is done: Thioflavin T (ThT) is known to rapidly associate with beta-pleated sheets, particularly the aggregated fibrils of synthetic Aβ(1-40). This association gives rise to a new excitation maximum at 440 nm and to enhanced emission at 490 nm.
The experiments were performed using a CytoFluor II fluorescence plate reader having the following parameters: […]
Into each well was aliquoted 95 μl of ThT (3 μM) prepared in PBS (pH 6.0), 2 μL of the compound to be tested (10 μM) prepared with 0.05% of methylcellulose in PBS (pH 6.0), and 3 μL of Aβ(1-40) (3 μg) prepared with dH2 O. The fluorescence measurement began when the Aβ(1-40) was added and continued for a total of 12-24 hours. The percent inhibition of beta-pleated sheet formation was calculated from the relative fluorescence unit increase over the 12-24 hours between aggregation in the presence and in the absence of the test compounds.

For test [5], the system named is rats injected with Aβ(25-35). The test is described as follows: Reduction of locomotor impairment due to Aβ-peptide injected into substantia nigra. In kind it is in vivo, Sprague-Dawley rat. The note with it: oral 1-10 mg/kg one hour before and three hours post 20 μg Aβ(25-35) injection; tested one week after treatment. The method, then: Male Sprague-Dawley rats (250-400 g) were given injections of 20 μg of Aβ(25-35) into their substantia nigra. Prior to the injection, the rats were fasted overnight and then each received an oral treatment of the test compound (1-10 mg/kg) dissolved in aqueous 1% methyl cellulose or the vehicle alone, one hour before and three hours post the Aβ-peptide stereotaxic injection. One week after treatment, the rats were dosed s.c. with 0.5 mg/kg apomorphine (dissolved in 0.1% vitamin C in isotonic saline) and the circling reflex was monitored using a Rotorat computerized behavioral monitoring apparatus for the time period between 15 and 30 minutes of being placed in the arena. Impairment of the animals due to Aβ-peptide was determined by measuring the number of rotations over the 15 minute period.

The test system of test [6] is MRL/MpJfas^1pr mutant mice. The test is described as follows: Reduction of cognitive deficits in autoimmune mice (T-maze). The note with it: Fas^1pr mice; 100 mg/kg p.o. daily from 2 to 4 months of age (9 weeks); versus untreated mutant mice. It counts as in vivo, mouse. From the text:
MRL/MpJfas^1pr ("mutant mice" or "Fas^1pr ") strains of mice have been described as useful models of Lupus due to their autoimmune lymphoproliferatory pathology. In particular, the mutant mice show a cognitive deficit at approximately four months of age, which is not observed at two months of age. See, for example, Forster et al., 1988, Behav. Neural Biology, 49, 139-151.
In the experiment, wild-type ("++") and Fas^1pr strains of mice were received at 4 to 8 weeks of age (n=10-11). The compound of Example 1 above or 1% methylcellulose (100 mg/kg p.o.) was administered daily from 2 months of age to 4 months of age (a total of 9 weeks). After reaching 4 months of age, the mice were tested for cognitive ability in a T-maze. This behavioral task measures discrimination, active avoidance and acquisition skills (acquisition is the number of avoidances in the first 5 test trials).

Counter-ions that a name gives are not always drawn.

`CCCCNC(=O)C=Cc1ccc(S(=O)(=O)O)o1` [Example 5, 5-[2-(N-n-Butylcarbamoyl)eth-1-enyl]-furan-2-sulfonic Acid Sodium Salt]: the inhibition at 100 µM was no less than 20% in test [1], no less than 20% in test [2], no less than 60% in test [3] and no less than 20% in test [4].
With `CCCCNC(=O)CCc1ccc(S(=O)(=O)O)o1` [Example 6, 5-[2-(N-n-Butylcarbamoyl)ethyl]-furan-2-sulfonic Acid Sodium Salt], the inhibition at 100 µM in test [1], in test [2] and in test [4] was no less than 20% throughout. Further, the inhibition at 10 µM at synthetic Aβ(1-40) was no less than 10%.
Regarding `CC(C)NC(=O)c1ccc(S(=O)(=O)O)o1` [Example 2, N-Isopropyl-5-carbamoylfuran-2-sulfonic Acid Sodium Salt], the inhibition at 100 µM was no less than 20% in test [1], no less than 20% in test [2], no less than 60% in test [3] and no less than 20% in test [4]. For the same compound, at synthetic Aβ(1-40), the inhibition at 10 µM was no less than 10%.
With `CCCCNC(=O)c1ccc(S(=O)(=O)[O-])o1.[Na+]` [Example 1, N-n-Butyl-5-carbamoylfuran-2-sulfonic Acid Sodium Salt], in test [5], the “locomotor impairment (apomorphine-induced rotations over 15 minute period) compared to Aβ(25-35)-treated controls” value is recorded as “reduced the locomotor impairment”. The inhibition at 100 µM in test [1] is no less than 20%; in test [2], no less than 20%; in test [3], no less than 60%; in test [4], no less than 20%. Besides, the “acquisition in T-maze (FIG. 1)” value in test [6] was “acquired avoidance skills earlier than untreated mutant mice”. For the same compound, the “avoidance in T-maze (FIG. 2)” value in test [6] is recorded as “reduced avoidance values”. Further, at synthetic Aβ(1-40), the inhibition at 10 µM was no less than 10%.
